{"source": "paper PMC5831858", "about": "“Pharmacological characterisation of CR6086, a potent prostaglandin E2 receptor 4 antagonist, as a new potential disease-modifying anti-rheumatic drug” (Arthritis Research & Therapy, 2018)", "key": {"[1]": {"system": "arthritic rats (collagen-induced arthritis model)", "experiment": "Collagen-induced arthritis in rats: clinical score, oedema, histology", "assay_type": "in vivo, rat", "procedure": "Male Lewis rats were immunised by intradermal injection at the base of the tail with an emulsion containing 150 μg of bovine collagen type II (bCII) in complete Freund’s adjuvant (CFA) or received an injection with incomplete Freund’s adjuvant (sham group). Three weeks after the first immunisation, animals were boosted with the same procedure. Three days after booster injection, arthritis had developed in all animals but the sham group. Oedema was assessed via plethysmometer (Ugo Basile, Varese, Italy), and the animals were then randomised to treatment groups. Oedema measurement was performed again after 7 and 14 days of treatment. Animals were blindly scored by two different investigators for clinical signs of arthritis (redness, swelling, pain of hind limb joints) as follows: 0 = normal; 1 = mild but definite redness and swelling of the ankle or wrist or individual digits, regardless of the number of affected digits; 2 = moderate redness and swelling of ankle or wrist; 3 = severe redness and swelling of the entire paw including digits; and 4 = maximally inflamed limb with involvement of multiple joints. The mean of the scores assigned by the investigators was calculated.\nThree different experiments in rat CIA are reported: a dose-response study, as well as two comparative studies vs the COX-2 inhibitor rofecoxib and the Janus kinase (JAK) inhibitor tofacitinib, respectively.\nBriefly, the paws were fixed in 10% neutral buffered formalin (Bio-Optica, Milan, Italy) and subsequently decalcified in EDTA for 4 weeks. Samples were dehydrated in an ethanol series and embedded in paraffin. At least three non-consecutive sections for each paw were blindly scored at the level of the tarsus, metatarsus and calcaneus for the following histological features: synovial oedema, pannus, synovial inflammatory cell infiltrate, cartilage damage, osteolysis and woven bone. Based on these histological features, a synovial score (synovial oedema, plus synovial inflammatory cell infiltrate, plus pannus), a bone score (woven bone plus osteolysis) and a total score were calculated. Two independent pathologists performed histopathology on blinded slides. The data of right and left hind limbs were summed for each rat."}, "rat EP4 receptor": {"target": "rat EP4 receptor (Rattus norvegicus, UniProt P43114)", "sequence (P43114 whole entry)": "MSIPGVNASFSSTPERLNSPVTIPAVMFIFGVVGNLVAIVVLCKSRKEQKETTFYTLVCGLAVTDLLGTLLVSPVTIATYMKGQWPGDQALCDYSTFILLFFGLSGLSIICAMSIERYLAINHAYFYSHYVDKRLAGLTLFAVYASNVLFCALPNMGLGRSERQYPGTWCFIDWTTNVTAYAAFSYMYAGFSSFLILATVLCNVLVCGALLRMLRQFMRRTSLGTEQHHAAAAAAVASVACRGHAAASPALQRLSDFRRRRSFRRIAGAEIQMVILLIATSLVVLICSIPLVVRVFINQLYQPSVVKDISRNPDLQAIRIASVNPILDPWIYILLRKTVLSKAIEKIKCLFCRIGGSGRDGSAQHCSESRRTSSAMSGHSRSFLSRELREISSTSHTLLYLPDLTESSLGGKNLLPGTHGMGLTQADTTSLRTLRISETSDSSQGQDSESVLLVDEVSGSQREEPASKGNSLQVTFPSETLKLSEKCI", "experiment": "EP4 receptor occupancy estimation from plasma exposure", "conditions": "3 mg/kg; repeated doses", "procedure": "CR6086 concentrations in rat plasma were determined by high-performance liquid chromatography (Agilent 1200 series; Agilent Technologies, Santa Clara, CA, USA) coupled with a triple-quadrupole mass spectrometer (API 4000 QTRAP; SCIEX, Concord, ON, Canada). A ZORBAX SB-C18 2.0 × 50-mm, 3.5-μm column (Agilent Technologies) in isocratic conditions was used with mobile phase 0.1% formic acid in water/acetonitrile (68:32 vol/vol). The method was linear within the dynamic range 1.0–10,000 ng/ml (lower to upper limit of quantification). CR6086 plasma protein binding was determined in the 0.2–200 μM concentration range using [^14C]CR6086 and equilibrium dialysis. EP4 receptor occupancy (RO) was calculated on the basis of CR6086 concentrations according to the following formula: RO%=Cave/Cave+Ki×100,\nAn estimation of the receptor occupancy was attempted in the dose range investigated in CIA rats. Because the CIA experiments were conducted after repeated doses, whereas the exposure shown above was determined after a single dose of CR6086, receptor occupancy estimation in the CIA rats took into consideration the accumulation ratio of CR6086 after repeated doses averaging 1.19 in male rats. […] Thus, in our experiments, clinically relevant effects in the CIA rat model were observed starting from approximately 50% EP4 receptor occupancy. […]"}, "EP2": {"target": "T1, EP2 (Homo sapiens, UniProt P43116)", "T1 construct": "host or cells: HEK-293 cells", "T1 sequence (P43116 whole entry)": "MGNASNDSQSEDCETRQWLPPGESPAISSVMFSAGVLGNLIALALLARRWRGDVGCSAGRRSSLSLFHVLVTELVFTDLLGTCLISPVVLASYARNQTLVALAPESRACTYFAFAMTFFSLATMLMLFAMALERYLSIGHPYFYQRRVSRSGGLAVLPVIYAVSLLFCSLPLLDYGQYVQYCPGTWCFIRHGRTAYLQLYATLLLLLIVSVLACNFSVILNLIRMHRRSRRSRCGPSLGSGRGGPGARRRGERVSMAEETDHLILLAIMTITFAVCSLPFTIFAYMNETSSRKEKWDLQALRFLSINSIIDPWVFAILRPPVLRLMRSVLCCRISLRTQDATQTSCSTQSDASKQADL", "experiment": "Eicosanoid receptor EP2 binding", "conditions": "[^3H]PGE2, HEK-293 cells, read-out: CR6086 Activity at 10µM"}, "α2 (non-selective)": {"system": "α2 (non-selective)", "experiment": "Adrenergic receptor α2 binding", "conditions": "[^3H]RX 821002, Rat cerebral cortex"}, "β1": {"target": "β1 (Homo sapiens, UniProt P08588)", "sequence (P08588 whole entry)": "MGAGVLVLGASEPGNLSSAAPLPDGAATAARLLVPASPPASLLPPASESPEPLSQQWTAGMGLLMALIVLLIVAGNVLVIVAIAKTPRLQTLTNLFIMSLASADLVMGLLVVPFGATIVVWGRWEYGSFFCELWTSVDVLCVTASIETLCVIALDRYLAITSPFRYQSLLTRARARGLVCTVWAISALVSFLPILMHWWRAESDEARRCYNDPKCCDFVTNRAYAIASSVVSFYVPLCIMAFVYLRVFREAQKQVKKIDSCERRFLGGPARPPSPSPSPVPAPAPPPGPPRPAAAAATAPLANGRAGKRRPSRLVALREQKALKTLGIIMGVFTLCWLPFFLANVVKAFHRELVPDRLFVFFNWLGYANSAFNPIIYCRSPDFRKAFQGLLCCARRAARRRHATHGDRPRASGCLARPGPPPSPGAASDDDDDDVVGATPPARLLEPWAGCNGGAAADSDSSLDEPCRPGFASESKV", "experiment": "Adrenergic receptor β1 binding", "conditions": "[^3H](-)CGP 12177, Human recombinant HEK-293 cells, read-out: CR6086 Activity at 10µM"}, "BZD (peripheral)": {"target": "BZD (peripheral) (Rattus norvegicus, UniProt P16257)", "experiment": "Benzodiazepine receptor (peripheral) binding", "conditions": "[^3H]PK 11195, Rat heart, read-out: CR6086 Activity at 10µM"}, "5-HT5a": {"target": "5-HT5a (Homo sapiens, UniProt P47898)", "sequence (P47898 whole entry)": "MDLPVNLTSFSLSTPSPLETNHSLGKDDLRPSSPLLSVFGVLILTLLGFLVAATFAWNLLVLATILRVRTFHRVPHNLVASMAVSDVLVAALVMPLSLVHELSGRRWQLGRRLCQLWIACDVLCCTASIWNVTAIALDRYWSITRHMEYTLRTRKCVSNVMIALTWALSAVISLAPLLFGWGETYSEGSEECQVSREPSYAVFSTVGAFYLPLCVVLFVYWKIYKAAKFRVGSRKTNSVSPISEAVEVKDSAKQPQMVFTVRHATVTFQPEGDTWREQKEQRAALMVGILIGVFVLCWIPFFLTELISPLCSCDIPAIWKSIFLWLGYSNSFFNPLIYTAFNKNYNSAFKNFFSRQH", "experiment": "Serotonin receptor 5-HT5a binding", "conditions": "[^3H]LSD, Human recombinant HEK-293 cells, read-out: CR6086 Activity at 10µM"}, "AT1": {"target": "AT1 (Homo sapiens, UniProt P30556)", "sequence (P30556 whole entry)": "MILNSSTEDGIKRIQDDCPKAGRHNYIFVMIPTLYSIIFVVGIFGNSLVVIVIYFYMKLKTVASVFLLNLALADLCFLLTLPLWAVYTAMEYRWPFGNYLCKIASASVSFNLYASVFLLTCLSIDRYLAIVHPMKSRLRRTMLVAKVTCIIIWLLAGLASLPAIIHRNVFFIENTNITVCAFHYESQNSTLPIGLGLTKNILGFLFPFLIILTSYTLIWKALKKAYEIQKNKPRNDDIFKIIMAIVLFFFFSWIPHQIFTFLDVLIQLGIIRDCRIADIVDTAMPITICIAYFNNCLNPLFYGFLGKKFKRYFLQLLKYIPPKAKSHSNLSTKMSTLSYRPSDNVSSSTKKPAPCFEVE", "experiment": "Angiotensin receptor AT1 binding", "conditions": "[^125I][Sar^1, IIe^8]-AT-II, Human recombinant HEK-293 cells, read-out: CR6086 Activity at 10µM"}, "ETA": {"target": "ETA (Homo sapiens, UniProt P25101)", "sequence (P25101 21-427)": "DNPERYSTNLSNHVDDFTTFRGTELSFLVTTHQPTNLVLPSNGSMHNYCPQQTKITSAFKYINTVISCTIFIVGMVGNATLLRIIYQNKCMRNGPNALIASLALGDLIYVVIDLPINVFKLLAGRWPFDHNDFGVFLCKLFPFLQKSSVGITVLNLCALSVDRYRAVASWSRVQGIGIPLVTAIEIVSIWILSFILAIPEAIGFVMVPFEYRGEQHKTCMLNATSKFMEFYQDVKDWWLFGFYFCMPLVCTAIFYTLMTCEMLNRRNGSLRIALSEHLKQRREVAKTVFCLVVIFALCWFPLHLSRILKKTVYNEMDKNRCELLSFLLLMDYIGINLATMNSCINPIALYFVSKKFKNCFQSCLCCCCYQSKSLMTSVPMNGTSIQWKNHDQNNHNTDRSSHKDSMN", "experiment": "Endothelin receptor ETA binding", "conditions": "[^125I]endothelin-1, Human recombinant CHO cells, read-out: CR6086 Activity at 10µM"}, "δ2 (DOP)": {"target": "δ2 (DOP) (Homo sapiens, UniProt P41143)", "sequence (P41143 whole entry)": "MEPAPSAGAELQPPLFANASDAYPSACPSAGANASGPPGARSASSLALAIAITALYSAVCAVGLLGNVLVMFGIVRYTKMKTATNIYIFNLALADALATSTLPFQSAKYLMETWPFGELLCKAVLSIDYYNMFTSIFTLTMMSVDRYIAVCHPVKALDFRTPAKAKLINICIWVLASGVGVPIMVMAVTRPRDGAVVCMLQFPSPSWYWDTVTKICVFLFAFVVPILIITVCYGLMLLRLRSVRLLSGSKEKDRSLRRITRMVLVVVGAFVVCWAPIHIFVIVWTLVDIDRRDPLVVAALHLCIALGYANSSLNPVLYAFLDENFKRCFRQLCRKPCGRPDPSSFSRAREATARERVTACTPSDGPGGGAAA", "experiment": "Opioid receptor δ2 (DOP) binding", "conditions": "[^3H]DADLE, Human recombinant CHO cells, read-out: CR6086 Activity at 10µM"}, "sst (non-selective)": {"system": "sst (non-selective)", "experiment": "sst receptor (non-selective) binding", "conditions": "[^125I]Tyr^11-somatostatin-14, AtT-20 cells"}}, "note": "“Also recorded” adds a separate entry of the source."}
{"smiles": "O=C([O-])c1ccc(C2(NC(=O)[C@H]3CC4(CCN3Cc3ccc(C(F)(F)F)cc3)CC4)CC2)cc1.[Na+]", "note": "[CR6086, Sodium (R)-4-(1-(6-(4-(trifluoromethyl)benzyl)-6-azaspiro[2.5]octane-5-carboxamido)cyclopropyl)benzoate]", "values": [{"measurement": "effect on structural and inflammatory parameters (oedema, histology)", "setting": "[1]; 15 mg/kg once daily, 14 days", "value": "markedly and significantly improved all the structural and inflammatory parameters"}, {"measurement": "effect on arthritis clinical score and oedema", "setting": "[1]; 1-10 mg/kg oral daily, 1 h and 24 h post-dosing", "value": "significantly and dose-dependently reduced"}, {"measurement": "efficacy relative to active comparators", "setting": "[1]; CR6086 15 mg/kg once daily, rofecoxib 5–15 mg/kg once daily, tofacitinib 5–25 mg/kg twice daily", "value": "more effective than rofecoxib; also recorded: as effective as, but more potent than, tofacitinib"}, {"measurement": "dose at which efficacy plateaued", "setting": "[1]; oral, once daily, 14 days", "value": "around 10 mg/kg"}, {"measurement": "minimum effective dose", "setting": "[1]; oral, once daily, 14 days", "value": 1, "unit": "mg/kg"}, {"measurement": "estimated EP4 receptor occupancy", "setting": "rat EP4 receptor", "value": "approximately 50%"}, {"measurement": "inhibition at 10 µM", "setting": "EP2", "value": "< 20", "unit": "%"}, {"measurement": "CR6086 Activity at 10µM", "setting": "α2 (non-selective)", "value": "IN (IN = < 20% displacement or inhibition (all tables))"}, {"measurement": "inhibition at 10 µM", "setting": "β1", "value": "< 20", "unit": "%"}, {"measurement": "inhibition at 10 µM", "setting": "BZD (peripheral)", "value": "< 20", "unit": "%"}, {"measurement": "inhibition at 10 µM", "setting": "5-HT5a", "value": "< 20", "unit": "%"}, {"measurement": "inhibition at 10 µM", "setting": "AT1", "value": "< 20", "unit": "%"}, {"measurement": "inhibition at 10 µM", "setting": "ETA", "value": "< 20", "unit": "%"}, {"measurement": "inhibition at 10 µM", "setting": "δ2 (DOP)", "value": "< 20", "unit": "%"}, {"measurement": "CR6086 Activity at 10µM", "setting": "sst (non-selective)", "value": "IN (IN = < 20% displacement or inhibition (all tables))"}]}
